Test results published in patent US9623028B2, “Methods of treating a cancer using substituted pyrrolopyrimidine compounds, compositions thereof” (Signal Pharmaceuticals, LLC, priority 2014, dated 2017).

How the values were obtained:
[1] = target: CLK2 (Homo sapiens (Human), UniProt P49760); experiment: biochemical; settings: read-out: CLK2 (% Inh.), % inhibition at 3 μM
[2] = target: CLK1 (Homo sapiens (Human), UniProt P49759); experiment: biochemical; settings: read-out: CLK1 (% Inh.), % inhibition at 3 μM
Sequence of CLK1 (P49759 whole entry): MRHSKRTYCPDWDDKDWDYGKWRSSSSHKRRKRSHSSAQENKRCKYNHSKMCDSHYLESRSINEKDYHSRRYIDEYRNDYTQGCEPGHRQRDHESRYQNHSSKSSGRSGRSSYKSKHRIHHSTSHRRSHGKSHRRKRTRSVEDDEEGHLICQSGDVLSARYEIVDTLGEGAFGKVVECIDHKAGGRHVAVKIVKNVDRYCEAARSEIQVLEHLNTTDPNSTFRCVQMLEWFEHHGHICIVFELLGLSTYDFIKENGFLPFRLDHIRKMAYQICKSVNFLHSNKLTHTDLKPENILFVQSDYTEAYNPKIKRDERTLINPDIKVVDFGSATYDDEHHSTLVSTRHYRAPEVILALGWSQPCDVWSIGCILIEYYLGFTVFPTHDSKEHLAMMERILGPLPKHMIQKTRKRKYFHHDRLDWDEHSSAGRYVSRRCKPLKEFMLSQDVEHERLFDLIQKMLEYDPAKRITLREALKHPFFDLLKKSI

Sequence of CLK2 (P49760 whole entry): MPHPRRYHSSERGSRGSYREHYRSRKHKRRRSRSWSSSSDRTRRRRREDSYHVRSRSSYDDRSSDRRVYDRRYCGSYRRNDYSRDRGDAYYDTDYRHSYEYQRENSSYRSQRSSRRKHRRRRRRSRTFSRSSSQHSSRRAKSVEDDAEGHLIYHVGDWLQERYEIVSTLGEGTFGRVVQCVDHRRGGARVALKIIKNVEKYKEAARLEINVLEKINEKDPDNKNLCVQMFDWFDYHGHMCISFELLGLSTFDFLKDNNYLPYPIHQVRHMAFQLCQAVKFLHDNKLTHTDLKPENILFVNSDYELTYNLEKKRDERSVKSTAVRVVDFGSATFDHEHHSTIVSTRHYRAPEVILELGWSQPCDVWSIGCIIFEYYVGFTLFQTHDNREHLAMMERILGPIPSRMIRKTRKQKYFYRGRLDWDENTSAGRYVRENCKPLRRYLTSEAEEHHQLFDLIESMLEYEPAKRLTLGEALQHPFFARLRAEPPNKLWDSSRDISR

SMILES | inhibition at 3 µM [1] [%] | inhibition at 3 µM [2] [%]
CNC(=O)c1ccc(Nc2nc(OC3CCCC3)c3c(-c4ccc(OC)c(OC)c4)c[nH]c3n2)c(OC)c1 [Compound 64, 4-(4-(cyclopentyloxy)-5-(3,4-dimethoxyphenyl)-7H-pyrrolo[2,3-d]pyrimidin-2-ylamino)-3-methoxy-N-methylbenzamide] | 99 | 68
Cc1cc(C(=O)N(C)C)ccc1Nc1nc(OC2CCOCC2)c2c(-c3ccnc(C#N)c3)c[nH]c2n1 [Compound 140, 4-(5-(2-cyanopyridin-4-yl)-4-(tetrahydro-2H-pyran-4-yloxy)-7H-pyrrolo[2,3-d]pyrimidin-2-ylamino)-N,N,3-trimethylbenzamide] | 103 | 97
COc1nc(Nc2ccc(C(=O)N(C)C)cc2Cl)nc2[nH]cc(-c3ccncc3)c12 [Compound 157, 3-chloro-4-(4-methoxy-5-(pyridin-4-yl)-7H-pyrrolo[2,3-d]pyrimidin-2-ylamino)-N,N-dimethylbenzamide] | 105 | 95
COc1cc(C(=O)NCCO)ccc1Nc1nc(OC(C)C)c2c(-c3ccc4nc(C)oc4c3)c[nH]c2n1 [Compound 160, N-(2-hydroxyethyl)-4-(4-isopropoxy-5-(2-methylbenzo[d]oxazol-6-yl)-7H-pyrrolo[2,3-d]pyrimidin-2-ylamino)-3-methoxybenzamide] | 108 | 98
CNC(=O)c1ccc(Nc2nc(OC3CCCC3)c3c(-c4cccnc4)c[nH]c3n2)c(OC)c1 [Compound 58, 4-(4-(cyclopentyloxy)-5-(pyridin-3-yl)-7H-pyrrolo[2,3-d]pyrimidin-2-ylamino)-3-methoxy-N-methylbenzamide] | 103 | 96
CNC(=O)c1ccc(Nc2nc(OC)c3c(-c4ccc(OC)nc4)c[nH]c3n2)c(OC)c1 [Compound 118, 3-methoxy-4-(4-methoxy-5-(6-methoxypyridin-3-yl)-7H-pyrrolo[2,3-d]pyrimidin-2-ylamino)-N-methylbenzamide] | 98 | 98
CC[C@@H](C)Oc1nc(Nc2ccc(C(=O)NC)cc2OC)nc2[nH]cc(-c3ccc4nc(C)oc4c3)c12 [Compound 203, (R)-4-(4-sec-butoxy-5-(2-methylbenzo[d]oxazol-6-yl)-7H-pyrrolo[2,3-d]pyrimidin-2-ylamino)-3-methoxy-N-methylbenzamide] | 99 | 98
CNC(=O)c1ccc(Nc2nc(OC3CCCC3)c3c(-c4ccc(O)cc4)c[nH]c3n2)c(C(C)C)c1 [Compound 11, 4-(4-(cyclopentyloxy)-5-(4-hydroxyphenyl)-7H-pyrrolo[2,3-d]pyrimidin-2-ylamino)-3-isopropyl-N-methylbenzamide] | 94 | 95
CNC(=O)c1ccc(Nc2nc(OC3CCC3)c3c(-c4ccc5nc(C)oc5c4)c[nH]c3n2)c(OC)c1 [Compound 198, 4-(4-cyclobutoxy-5-(2-methylbenzo[d]oxazol-6-yl)-7H-pyrrolo[2,3-d]pyrimidin-2-ylamino)-3-methoxy-N-methylbenzamide] | 100 | 93
CNC(=O)c1ccc(Nc2nc(OC3CCC(C)(O)CC3)c3c(-c4ccc5nc(C)oc5c4)c[nH]c3n2)c(C)c1 (stereo not drawn) [Compound 150, 4-(4-((1r,4r)-4-hydroxy-4-methylcyclohexyloxy)-5-(2-methylbenzo[d]oxazol-6-yl)-7H-pyrrolo[2,3-d]pyrimidin-2-ylamino)-N,3-dimethylbenzamide] | 111 | 99
Cc1nc2ccc(-c3c[nH]c4nc(Nc5ccc(C(=O)N(C)C)cc5C)nc(O[C@H]5CCOC5)c34)cc2o1 [Compound 98, (S)-N,N,3-trimethyl-4-(5-(2-methylbenzo[d]oxazol-6-yl)-4-(tetrahydrofuran-3-yloxy)-7H-pyrrolo[2,3-d]pyrimidin-2-ylamino)benzamide] | 104 | 103
COc1nc(Nc2ccc(C(=O)N(C)C)cc2C)nc2[nH]cc(-c3ccncc3)c12 [Compound 89, 4-(4-methoxy-5-(pyridin-4-yl)-7H-pyrrolo[2,3-d]pyrimidin-2-ylamino)-N,N,3-trimethylbenzamide] | 100 | 101
CNC(=O)c1ccc(Nc2nc(OC3CCOCC3)c3c(-c4ccc5nc(C)n(C)c5c4)c[nH]c3n2)c(OC)c1 [Compound 148, 4-(5-(1,2-dimethyl-1H-benzo[d]imidazol-6-yl)-4-(tetrahydro-2H-pyran-4-yloxy)-7H-pyrrolo[2,3-d]pyrimidin-2-ylamino)-3-methoxy-N-methylbenzamide] | 106 | 99
CNC(=O)c1ccc(Nc2nc(OC3CCOCC3)c3c(-c4ccc(O)cc4)c[nH]c3n2)c(OC)c1 [Compound 17, 4-(5-(4-hydroxyphenyl)-4-(tetrahydro-2H-pyran-4-yloxy)-7H-pyrrolo[2,3-d]pyrimidin-2-ylamino)-3-methoxy-N-methylbenzamide] | 98 | 97

More lines, now with the values ahead:

inhibition at 3 µM [1] [%] | inhibition at 3 µM [2] [%] | SMILES
98 | 101 | CNC(=O)c1ccc(Nc2nc(OC3CCOCC3)c3c(-c4cnn(C)c4)c[nH]c3n2)c(OC)c1 [Compound 184, 3-methoxy-N-methyl-4-(5-(1-methyl-1H-pyrazol-4-yl)-4-(tetrahydro-2H-pyran-4-yloxy)-7H-pyrrolo[2,3-d]pyrimidin-2-ylamino)benzamide]
99 | 100 | CNC(=O)c1ccc(Nc2nc(OC(C)C)c3c(-c4ccc(-c5ncc[nH]5)cc4)c[nH]c3n2)c(OC)c1 [Compound 193, 4-(5-(4-(1H-imidazol-2-yl)phenyl)-4-isopropoxy-7H-pyrrolo[2,3-d]pyrimidin-2-ylamino)-3-methoxy-N-methylbenzamide]
100 | 97 | COc1cc(C(=O)N[C@H](C)CO)ccc1Nc1nc(OC2CCCC2)c2c(-c3ccc4nc(C)oc4c3)c[nH]c2n1 [Compound 214, (R)-4-(4-(cyclopentyloxy)-5-(2-methylbenzo[d]oxazol-6-yl)-7H-pyrrolo[2,3-d]pyrimidin-2-ylamino)-N-(1-hydroxypropan-2-yl)-3-methoxybenzamide]
104 | 101 | Cc1nc2ccc(-c3c[nH]c4nc(Nc5cnn(C)c5C)nc(OC5CCCC5)c34)cc2o1 [Compound 296, 4-(cyclopentyloxy)-N-(1,5-dimethyl-1H-pyrazol-4-yl)-5-(2-methylbenzo[d]oxazol-6-yl)-7H-pyrrolo[2,3-d]pyrimidin-2-amine]
99 | 99 | COc1cc(C(=O)NCCO)ccc1Nc1nc(OC2CC2)c2c(-c3ccc4nc(C)oc4c3)c[nH]c2n1 [Compound 216, 4-(4-cyclopropoxy-5-(2-methylbenzo[d]oxazol-6-yl)-7H-pyrrolo[2,3-d]pyrimidin-2-ylamino)-N-(2-hydroxyethyl)-3-methoxybenzamide]
100 | 100 | Cc1nc2ccc(-c3c[nH]c4nc(Nc5cnn(CC(C)(C)O)c5Cl)nc(OC5CCCC5)c34)cc2o1 [Compound 371, 1-(5-chloro-4-(4-(cyclopentyloxy)-5-(2-methylbenzo[d]oxazol-6-yl)-7H-pyrrolo[2,3-d]pyrimidin-2-ylamino)-1H-pyrazol-1-yl)-2-methylpropan-2-ol]
100 | 99 | Cc1nc2ccc(-c3c[nH]c4nc(Nc5cnn(C6CCOCC6)c5Cl)nc(OC5CCCC5)c34)cc2o1 [Compound 377, N-(5-chloro-1-(tetrahydro-2H-pyran-4-yl)-1H-pyrazol-4-yl)-4-(cyclopentyloxy)-5-(2-methylbenzo[d]oxazol-6-yl)-7H-pyrrolo[2,3-d]pyrimidin-2-amine]
100 | 99 | COc1cc(C(=O)NCCO)ccc1Nc1nc(OC2CCOCC2)c2c(-c3ccc4nc(C)oc4c3)c[nH]c2n1 [Compound 213, N-(2-hydroxyethyl)-3-methoxy-4-(5-(2-methylbenzo[d]oxazol-6-yl)-4-(tetrahydro-2H-pyran-4-yloxy)-7H-pyrrolo[2,3-d]pyrimidin-2-ylamino)benzamide]
99 | 99 | CNC(=O)c1ccc(Nc2nc(NC(C)C)c3c(-c4ccc5nc(C)oc5c4)c[nH]c3n2)c(OC)c1 [Compound 202, 4-(4-(isopropylamino)-5-(2-methylbenzo[d]oxazol-6-yl)-7H-pyrrolo[2,3-d]pyrimidin-2-ylamino)-3-methoxy-N-methylbenzamide]
99 | 99 | CNC(=O)c1ccc(Nc2nc(OC3CCOCC3)c3c(-c4ccc(-c5nc(C)c[nH]5)cc4)c[nH]c3n2)c(OC)c1 [Compound 207, 3-methoxy-N-methyl-4-(5-(4-(4-methyl-1H-imidazol-2-yl)phenyl)-4-(tetrahydro-2H-pyran-4-yloxy)-7H-pyrrolo[2,3-d]pyrimidin-2-ylamino)benzamide]
103 | 99 | CNC(=O)c1ccc(Nc2nc(OC3CCC(C)(O)CC3)c3c(-c4ccc5nc(C)oc5c4)c[nH]c3n2)c(OC)c1 (stereo not drawn) [Compound 205, 4-(4-((1r,4r)-4-hydroxy-4-methylcyclohexyloxy)-5-(2-methylbenzo[d]oxazol-6-yl)-7H-pyrrolo[2,3-d]pyrimidin-2-ylamino)-3-methoxy-N-methylbenzamide]
105 | 100 | CNC(=O)c1ccc(Nc2nc(O[C@H]3CCOC3)c3c(-c4ccc5nc(C)oc5c4)c[nH]c3n2)c(OC)c1 [Compound 169, (S)-3-methoxy-N-methyl-4-(5-(2-methylbenzo[d]oxazol-6-yl)-4-(tetrahydrofuran-3-yloxy)-7H-pyrrolo[2,3-d]pyrimidin-2-ylamino)benzamide]
101 | 99 | CNC(=O)c1ccc(-c2c[nH]c3nc(Nc4ccc(C(=O)NC)cc4Cl)nc(OC4CCOCC4)c23)cc1 [Compound 421, 3-chloro-N-methyl-4-(5-(4-(methylcarbamoyl)phenyl)-4-(tetrahydro-2H-pyran-4-yloxy)-7H-pyrrolo[2,3-d]pyrimidin-2-ylamino)benzamide]
